Experimental findings from patent US20050245520A1, “2-Phenylpyridin-4-yl derivatives as alk5 inhibitors” (priority 2002, published 2005) are described below.

For orientation: melting point means the temperature, or range, at which the solid turns liquid. Turning to `Cc1ccn2c(-c3ccnc(-c4ccc(OCC(N)=O)cc4)c3)c(-c3cccc(C)n3)nc2c1` [Example 77, 7-methyl-2-(6-methyl-pyridin-2-yl)-3-{2-[4(aminocarbonylmethyloxy)phenyl]-pyridin-4-yl}-imidazo[1,2-a]pyridine], the melting point was 213 °C.

`Cc1cccc(-c2nc3ccccn3c2-c2ccnc(-c3ccc(N4CCOCC4)cc3)c2)n1` [Example 79, 2-(6-methyl-pyridin-2-yl)-3-{2-[4-(morpholin-4-yl)phenyl]-pyridin-4yl}-imidazo[1,2-a]pyridine] gave a melting point of 190 °C.

In the case of `Cc1cccc(-c2sc(N)nc2-c2ccnc(-c3ccc(N4CCOCC4)cc3)c2)n1` [Example 132], the melting point was found to be 246 °C.

`Cc1cccc(-c2nc3ccccn3c2-c2ccnc(-c3ccc(OCc4cn(C)cn4)cc3)c2)n1` [Example 76, 2-(6-methyl-pyridin-2-yl)-3-{2-[4-((1-methyl-imidazol-4-yl)methyloxy)phenyl]-pyridin-4-yl}-imidazo[1,2-a]pyridine] gave a melting point of 120 °C.

Take `Cc1cccc(-c2[nH]c(C(C)(C)C)nc2-c2ccnc(-c3ccc(CN(C)C)cc3)c2)n1` [Example 101, (4-{4-[2-tert-Butyl-5-(6-methyl-pyridin-2-yl)-1H-imidazol-4-yl]-pyridin-2-yl}-benzyl)-dimethyl-amine]: the melting point worked out at 187 °C.

`Cc1ccn2c(-c3ccnc(-c4ccc(OCc5cn(C)cn5)cc4)c3)c(-c3cccc(C)n3)nc2c1` [Example 75, 7-methyl-2-(6-methyl-pyridin-2-yl)-3-{2-[4-((1-methyl-imidazol-4-yl)methyloxy)phenyl]-pyridin-4-yl}-imidazol[1,2-a]pyridine] returned a melting point of 217 °C.

As for `COCCCNC(=O)c1ccc(-c2cc(-c3c(-c4cccc(C)n4)nc4ccccn34)ccn2)cc1` [Example 67, 2-(6-methyl-pyridin-2-yl)-3-{2-[4-((3-methoxypropylamino)carbonyl)phenyl]-pyridin-4-yl}-imidazo[1,2-a]pyridine], the melting point stood at 165 °C.

Turning to `Cc1cccc(-c2[nH]c(C(C)(C)C)nc2-c2ccnc(-c3ccc(OCCN4CCCC4)cc3)c2)n1` [Example 108, 4-(2-tert-Butyl-5-{6-methyl}-pyridin-2-yl-1H-imidazol-4-yl)-2-[4-(2-pyrrolidin-1-yl-ethoxy)-phenyl]-pyridine], the melting point was 168 °C.

With `Cc1cccc(-c2n[nH]cc2-c2ccnc(-c3ccc(OC(F)(F)F)cc3)c2)n1` [Example 4], the melting point worked out at 131 °C.

`Cc1ccn2c(-c3ccnc(-c4ccc(N5CCOCC5)cc4)c3)c(-c3cccc(C)n3)nc2c1` [Example 80, 7-methyl-2-(6-methyl-pyridin-2-yl)-3-{2-[4-(morpholin-4-yl)phenyl]-pyridin-4-yl}-imidazo[1,2-a]pyridine]: the melting point turned out to be 208 °C.

For the compound `Cc1cccc(-c2nc3ccccn3c2-c2ccnc(-c3ccc(C(=O)N4CCOCC4)cc3)c2)n1` [Example 66, 2-(6-methyl-pyridin-2-yl)-3-{2-[4-((morpholin-4-yl)carbonyl)phenyl]-pyridin-4-yl}-imidazo[1,2-a]pyridine], the melting point was determined as 110 °C.

The compound `Cc1cccc(-c2n[nH]cc2-c2ccnc(-c3ccc(S(C)(=O)=O)cc3)c2)n1` [Example 7] displayed a melting point of 232 to 234 °C.

Consider `Cc1cccc(-c2n[nH]cc2-c2ccnc(-c3ccc(OCc4cn(C)cn4)cc3)c2)n1` [Example 1, 2-{4-[(1-methyl-1H-imidazol-4-yl)methoxy]phenyl}-4-[3-(6-methylpyridin-2-yl)-1H-pyrazol-4-yl]pyridine], for which the melting point amounted to 191 °C.

In the case of `Cc1cccc(-c2nc3c(C)cccn3c2-c2ccnc(-c3ccc(OCC(N)=O)cc3)c2)n1` [Example 78, 8-methyl-2-(6-methyl-pyridin-2-yl)-3-{2-[4-(aminocarbonylmethyloxyl)phenyl]-pyridin-4-yl}-imidazo[1,2-a]pyridine], the melting point came to 183 °C.

In the case of `Cc1cccc(-c2[nH]c(C(C)(C)C)nc2-c2ccnc(-c3ccc(OCC(N)=O)cc3)c2)n1` [Example 107, 2-{4-[4-(2-tert-Butyl-5-{6-methyl}pyridin-2-yl-1H-imidazol-4-yl)-pyridin-2-yl]-phenoxy}-acetamide], the melting point came out at 210 °C.

`CCS(=O)(=O)c1ccc(-c2cc(-c3nc(N)sc3-c3cccc(C)n3)ccn2)cc1` [Example 127] registered a melting point of 219 °C.

The compound `Cc1cccc(-c2c[nH]nc2-c2ccnc(-c3ccc(CN4CCOCC4)cc3)c2)n1` [Example 21] showed a melting point of 128 °C.

In the case of `Cn1cnc(COc2ccc(-c3cc(-c4nc(C(C)(C)C)[nH]c4-c4ccccn4)ccn3)cc2)c1` [Example 109, 4-(2-tert-Butyl-5-pyridin-2-yl-1H-imidazol-4-yl)-2-[4-(1-methyl-1H-imidazol4-ylmethoxy)-phenyl]-pyridine], the melting point was 156 °C.

Regarding `Cc1cccc(-c2n[nH]cc2-c2ccnc(-c3ccc(C(=O)NC4CCOCC4)cc3)c2)n1` [Example 14, 4-{4-[3-(6-methylpyridin-2-yl)-1H-pyrazol-4-yl]pyridin-2-yl}-N-(tetrahydro-2H-pyran-4-yl)benzamide], the melting point came to 148 °C.

With `CCS(=O)(=O)c1ccc(-c2cc(-c3c[nH]nc3-c3cccc(C)n3)ccn2)cc1` [Example 2, 2-[4-(Ethylsulfonyl)phenyl]-4-[3-(6-methylpyridin-2-yl)-1H-pyrazol-4-yl]pyridine], the melting point worked out at 244 °C.

`COc1ccc(-c2cc(-c3c(-c4ccccn4)nc4ccccn34)ccn2)cc1` [Example 34, 3-[2-(4-methoxyphenyl)-pyridin-4-yl]-2-pyridin-2-yl-imidazo[1,2-a]pyridine] registered a melting point of 222 °C.

The compound `Cc1cccc(-c2n[nH]cc2-c2ccnc(-c3ccc(C#N)cc3)c2)n1` [Example 3] showed a melting point of 198 °C.

`Cc1cccc(-c2nc3ccccn3c2-c2ccnc(-c3ccc(CN4CCOCC4)cc3)c2)n1` [Example 56, 2-(6-methyl-pyridin-2-yl)-3-[2-(4-(morpholin-4-ylmethyl)phenyl)-pyridin-4-yl]-imidazo[1,2-a]pyridine] yielded a melting point of 156 °C.

In turn, `Cc1cccc(-c2c[nH]nc2-c2ccnc(-c3ccc(N4CCOCC4)cc3)c2)n1` [Example 20] showed a melting point of 210 °C.

`Cc1cccc(-c2cn[nH]c2-c2ccnc(-c3ccc(C(=O)NC4CCOCC4)cc3)c2)n1` [Example 18, 3-[2-(4-((tetrahydropyran-4-yl)aminocarbonyl)phenyl)pyridin-yl]-4-[6-methylpyridin-2-yl]-1H-pyrazole]: the melting point stood at 170 °C.

In turn, `Cc1cccc(-c2sc(N)nc2-c2ccnc(-c3ccc(OC(F)(F)F)cc3)c2)n1` [Example 126] returned a melting point of 232 °C.

`Cc1cccc(-c2n[nH]cc2-c2ccnc(-c3ccc(Cl)cc3)c2)n1` [Example 5]: the melting point was 190 °C.

For the compound `Cc1cccc(-c2sc(N)nc2-c2ccnc(-c3ccc(OCC(N)=O)cc3)c2)n1` [Example 134], the melting point amounted to 191 °C.

`Nc1nc(-c2ccccn2)c(-c2ccnc(-c3ccc(N4CCOCC4)cc3)c2)s1` [Example 111] displayed a melting point of 246 °C.

As to `Cc1cccc(-c2[nH]c(C(C)(C)C)nc2-c2ccnc(-c3ccc(C(=O)NC4CCOCC4)cc3)c2)n1` [Example 81], the melting point was found to be 174 °C.
